Numbering of substitutions follows the chain as printed.
How the values were obtained:
[1] = molecular target: T1, Nluc-A1R (adenosine A1 receptor) (Homo sapiens, UniProt P30542, I69A); assay: NanoBRET competition binding, live HEK […] cells; type: cell-based
T1 sequence (P30542 1-326 I69A): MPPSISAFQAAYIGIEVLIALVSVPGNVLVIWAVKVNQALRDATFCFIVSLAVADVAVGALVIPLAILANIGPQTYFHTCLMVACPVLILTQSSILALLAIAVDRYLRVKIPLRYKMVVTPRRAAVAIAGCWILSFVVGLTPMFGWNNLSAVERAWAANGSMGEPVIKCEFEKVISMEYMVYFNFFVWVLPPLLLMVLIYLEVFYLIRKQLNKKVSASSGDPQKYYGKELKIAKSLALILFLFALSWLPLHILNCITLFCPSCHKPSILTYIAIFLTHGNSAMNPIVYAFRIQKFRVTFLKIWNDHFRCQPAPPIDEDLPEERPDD

[2] = molecular target: T2, Nluc-A1R (adenosine A1 receptor) L253T (Homo sapiens, UniProt P30542, L253T); assay: cell-based; parameters: species or system HEK 293
T2 sequence (P30542 1-326 L253T): T1 sequence (P30542 1-326 I69A) with A69I, L253T

[3] = molecular target: T3, Nluc-A1R (adenosine A1 receptor) (Homo sapiens, UniProt P30542, T257A); assay: NanoBRET competition binding, live HEK […] cells; type: cell-based
T3 sequence (P30542 1-326 T257A): T1 sequence (P30542 1-326 I69A) with A69I, T257A

[4] = molecular target: T4, Nluc-A1R (adenosine A1 receptor) S267A (Homo sapiens, UniProt P30542, S267A); assay: cell-based; parameters: species or system HEK 293
T4 sequence (P30542 1-326 S267A): T1 sequence (P30542 1-326 I69A) with A69I, S267A

[5] = molecular target: T5, Nluc-A1R (adenosine A1 receptor) Y12A (Homo sapiens, UniProt P30542, Y12A); assay: cell-based; parameters: species or system HEK 293
T5 sequence (P30542 1-326 Y12A): T1 sequence (P30542 1-326 I69A) with Y12A, A69I

[6] = molecular target: T6, Nluc-A1R (adenosine A1 receptor) N148A (Homo sapiens, UniProt P30542, N148A); assay: cell-based; parameters: species or system HEK 293
T6 sequence (P30542 1-326 N148A): T1 sequence (P30542 1-326 I69A) with A69I, N148A

[7] = molecular target: T7, Nluc-A1R (adenosine A1 receptor) Q9A (Homo sapiens, UniProt P30542, Q9A); assay: cell-based; parameters: species or system HEK 293
T7 sequence (P30542 1-326 Q9A): T1 sequence (P30542 1-326 I69A) with Q9A, A69I

OC[C@H]1O[C@@H](n2cnc3c(N[C@@H]4CCC[C@H]4O)ncnc32)[C@H](O)[C@@H]1O [compound 6, HOCPA]
Ki [1]: 45.7 µM
Ki [2]: 2.04 µM
Ki [3]: 0.115 µM
Ki [4]: 1.02 µM
Ki [5]: 1.66 µM
Ki [6]: 0.708 µM
Ki [7]: 1.95 µM
